Where “and” joins values, the source holds several entries; their conditions need not be identical. Equal entries are not always repeated. Entries after “also recorded” stand apart in the source; their conditions may differ. Where two headings read alike, the source gives them in different places.
How the values were obtained:
human tyrosinase = system: T1, human tyrosinase; test: Substrate test with HBL cell lysates and MBTH (absorbance at 490 nm); assay type: biochemical; details: different concentrations, over 1 h
T1 construct: The oxidation of L-DOPA by cell-free HBL cell extracts was monitored spectrophotometrically at 490 nm; endogenous in cells; host or cells: HBL human melanoma cells (detergent-solubilized cell extract)

HBL cells = test: MTT viability assay; assay type: cell-based, human; details: 25 or 50 μM, 24 h
Protocol: The effect of the inhibitors on cell viability was evaluated by phase contrast microscopy and by means of the 3-(4,5-dimethyl-2-thiazolyl)-2,5-diphenyl-2H-tetrazolium bromide (MTT) assay. HBL cells were treated with the compounds (25 or 50 μM) for 24 h. At the end of the incubation period, phase contrast images were taken and the MTT assay was performed to test the cytotoxicity of each compound.
Figure 4 Effect of caffeic acid derivatives on the viability of HBL cells. Cells were incubated for 24 h with the inhibitors at 25 or 50 µM. (a) Phase contrast microscopy images. Representative images are shown (n = 8) Bar size: 50 μm. (b) MTT viability assay. Cells were grown in 96-well plates to ~80% confluence in the presence or absence of the indicated compounds. After 24 h, MTT was added (1 mg/mL final concentration) and maintained in the culture media for 4 h. Cells were PBS-washed twice and solubilized in DMSO. Absorbance at 562 nm was measured and represented as a percentage of the control value. The mean ± SEM of 8 independent experiments is shown. **** p < 0.0001.
Cell viability was measured by the MTT assay. HBL cells were seeded into the wells of a 96-wells plate at a density of 10,000 cells in 200 μL cell culture media. The seeded cells were incubated for 18 h at 37 °C, then treated with the compounds (25 or 50 μM) for 24 h or left untreated. At the end of the incubation period, images were taken and the MTT assay was performed to test the cytotoxicity of the different caffeic acid derivatives.

[1] = target: T2, tyrosinase from HBL human melanoma cells (Homo sapiens, UniProt P14679); test: DO activity of human tyrosinase in HBL cell extracts (MBTH assay, 490 nm); assay type: biochemical; details: for Km: read-out: Km (apparent)
T2 construct: endogenous in cells; host or cells: HBL human melanoma cells (detergent-solubilized cell extract)
T2 sequence (P14679 19-529): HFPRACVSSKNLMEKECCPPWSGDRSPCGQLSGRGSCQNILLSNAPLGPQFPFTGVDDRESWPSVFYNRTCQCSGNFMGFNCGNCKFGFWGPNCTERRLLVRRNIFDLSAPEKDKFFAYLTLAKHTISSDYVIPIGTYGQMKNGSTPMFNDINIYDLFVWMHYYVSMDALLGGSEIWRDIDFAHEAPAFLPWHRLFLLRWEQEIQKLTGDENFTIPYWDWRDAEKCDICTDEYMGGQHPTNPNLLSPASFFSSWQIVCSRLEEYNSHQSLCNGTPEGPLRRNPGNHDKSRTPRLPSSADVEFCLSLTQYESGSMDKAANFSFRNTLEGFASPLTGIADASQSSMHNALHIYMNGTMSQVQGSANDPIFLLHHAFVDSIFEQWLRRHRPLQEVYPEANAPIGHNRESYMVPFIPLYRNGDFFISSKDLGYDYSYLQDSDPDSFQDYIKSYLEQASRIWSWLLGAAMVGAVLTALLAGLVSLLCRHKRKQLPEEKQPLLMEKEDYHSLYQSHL
Protocol: In further experiments, the effect of LCAME and LCA was investigated on extracts from HBL human melanoma cells expressing tyrosinase, and the inhibition of DO activity was evaluated. DO activity was determined according to Winder and Harris with some minor modifications: cell extracts were incubated with 3-methyl-2-benzothiazolinone hydrazone (MBTH) and absorbance at 490 nm was measured every 10 min for 1 h.
Cells were solubilized in 1% Igepal, 1% phenylmethylsulfonyl fluoride, 50 mM phosphate buffer (pH 6.8) and centrifuged at 2000 rpm for 5 min.
DO activity determinations were performed according to Winder and Harris with minor modifications. Briefly, cell extracts (usually 50–100 µg protein/assay) were incubated with 5 mM MBTH and 2.5 mM L-DOPA in 50 mM phosphate buffer pH 6.8 in the presence of the indicated concentrations of the compound of choice in a 96-wells plate. DO activity was measured spectrophotometrically in a microplate reader every ten minutes for one hour and was expressed as the slopes calculated with the GraphPad Prism 7 software (Linear Regression, San Diego, CA, USA).
For the analysis of kinetic parameters, the assays were run as above, using different concentrations of L-DOPA (from 0.1 to 2.0 mM) and of the inhibitor (0, 10 and 25 μM) to build the Lineweaver–Burk plot.

IC50 ([1]; DO activity, HBL cell extracts, L-DOPA 2.5 mM, read-out: IC50 (Mean ± SEM)): 30 µM and 30.1 µM | Ki ([1]; DO activity, competitive model Km^app = Km (1 + [I]/Ki)): 34.7 ± 1.1 µM | type of inhibition (Lineweaver–Burk) ([1]; L-DOPA 0.1 to 2.0 mM, LCAME 10 or 25 μM): competitive inhibition | Vmax ([1]; [LCAME] 10 μM): 0.18 ± 0.02 ∆A490/min mg | Km ([1]; [LCAME] 10 μM): 1430 ± 300 µM | Vmax ([1]; [LCAME] 25 μM): 0.19 ± 0.03 ∆A490/min mg | Km ([1]; [LCAME] 25 μM): 1950 ± 500 µM | inhibitory effect on DO activity ([1]; fixed concentration of 25 μM, HBL cell extracts): significant inhibitory effect
SMILES: COC(=O)/C=C/c1ccc(O)c(O)c1SCCC(S)CCCCC(=O)O (stereo not shown) [LCAME, 2-S-lipoylcaffeic acid methyl ester]
change in the absorbance at 490 nm (substrate of human tyrosinase) (human tyrosinase): did not induce any change | cytotoxicity (MTT) (HBL cells): nontoxic; also recorded: not cytotoxic

— article PMC6121902, “Conjugation with Dihydrolipoic Acid Imparts Caffeic Acid Ester Potent Inhibitory Effect on Dopa Oxidase Activity of Human Tyrosinase” (International Journal of Molecular Sciences, 2018)
